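Assay format: 96-well plates, 48-hour exposure. Here, GI50 denotes the concentration required for 50% inhibition of growth. The concentration for full growth arrest is given as TGI.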
Columns and labels:
Assay in all cases: growth of human tumour cells (NCI), 48 h
HS 578T breast = system: HS 578T breast
TK-10 renal = system: TK-10 renal
SR leukemia = system: SR leukemia
RPMI-8226 leukemia = system: RPMI-8226 leukemia
SF-539 CNS = system: SF-539 CNS
EKVX NSCLC = system: EKVX NSCLC
NCI-H460 lung = system: NCI-H460 lung
MDA-MB-435 = system: MDA-MB-435
OVCAR-4 ovarian = system: OVCAR-4 ovarian
SF-268 CNS = system: SF-268 CNS
SK-MEL-5 melanoma = system: SK-MEL-5 melanoma
SW-620 colon = system: SW-620 colon
HT29 colon = system: HT29 colon
HOP-92 NSCLC = system: HOP-92 NSCLC
OVCAR-5 ovarian = system: OVCAR-5 ovarian
HCT-15 colon = system: HCT-15 colon
DU-145 prostate = system: DU-145 prostate
OVCAR-8 ovarian = system: OVCAR-8 ovarian
LOX IMVI melanoma = system: LOX IMVI melanoma
PC-3 prostate = system: PC-3 prostate
U251 CNS = system: U251 CNS
HL-60(TB) leukemia = system: HL-60(TB) leukemia
KM12 colon = system: KM12 colon
M14 melanoma = system: M14 melanoma
SN12C renal = system: SN12C renal
SK-MEL-2 melanoma = system: SK-MEL-2 melanoma
SF-295 CNS = system: SF-295 CNS
NCI-H23 lung = system: NCI-H23 lung
COLO 205 colon = system: COLO 205 colon
MOLT-4 leukemia = system: MOLT-4 leukemia
NCI/ADR-RES ovarian = system: NCI/ADR-RES ovarian
ACHN renal = system: ACHN renal
RXF 393 renal = system: RXF 393 renal
MCF7 breast = system: MCF7 breast
BT-549 breast = system: BT-549 breast
A498 renal = system: A498 renal
NCI-H226 lung = system: NCI-H226 lung
UO-31 renal = system: UO-31 renal
CAKI-1 renal = system: CAKI-1 renal
SNB-75 CNS = system: SNB-75 CNS
A549 NSCLC = system: A549 NSCLC
HOP-62 NSCLC = system: HOP-62 NSCLC
786-0 renal = system: 786-0 renal
NCI-H522 lung = system: NCI-H522 lung
UACC-62 melanoma = system: UACC-62 melanoma
K-562 leukemia = system: K-562 leukemia
SK-OV-3 ovarian = system: SK-OV-3 ovarian
IGROV1 ovarian = system: IGROV1 ovarian
OVCAR-3 ovarian = system: OVCAR-3 ovarian
SK-MEL-28 melanoma = system: SK-MEL-28 melanoma
HCT-116 colon = system: HCT-116 colon
MDA-MB-231 breast = system: MDA-MB-231 breast
UACC-257 melanoma = system: UACC-257 melanoma
SNB-19 CNS = system: SNB-19 CNS
CCRF-CEM leukemia = system: CCRF-CEM leukemia
T-47D breast = system: T-47D breast

With `CCOC(=O)c1c(-c2ccccc2)[n+](=O)c2ccc(Cl)cc2n1[O-]` the GI50 (HS 578T breast) was 4.63 µM, the TGI (HS 578T breast) was 31.8 µM and the GI50 (TK-10 renal) was 4.55 µM. For the same compound, the TGI (TK-10 renal) was 23.6 µM, the GI50 (SR leukemia) was 2.59 µM and the TGI (SR leukemia) was 11 µM. It also gave a GI50 (RPMI-8226 leukemia) of 2.44 µM, a TGI (RPMI-8226 leukemia) of 6.62 µM and a GI50 (SF-539 CNS) of 2.97 µM. For the same compound, the TGI (SF-539 CNS) was 13.1 µM, the GI50 (EKVX NSCLC) was 2.4 µM and the TGI (EKVX NSCLC) was 8.32 µM. It also gave a GI50 (NCI-H460 lung) of 5.36 µM, a TGI (NCI-H460 lung) of 17.9 µM and a GI50 (MDA-MB-435) of 10.2 µM. For the same compound, the TGI (MDA-MB-435) was 26.4 µM, the GI50 (OVCAR-4 ovarian) was 4.25 µM and the TGI (OVCAR-4 ovarian) was 22.9 µM. It also gave a GI50 (SF-268 CNS) of 4.28 µM, a TGI (SF-268 CNS) of 32.2 µM and a GI50 (SK-MEL-5 melanoma) of 1.63 µM. For the same compound, the TGI (SK-MEL-5 melanoma) was 3.33 µM, the GI50 (SW-620 colon) was 5.59 µM and the TGI (SW-620 colon) was 17.7 µM. It also gave a GI50 (HT29 colon) of 11 µM, a TGI (HT29 colon) of 23 µM and a GI50 (HOP-92 NSCLC) of 1.93 µM. It also gave a TGI (HOP-92 NSCLC) of 4.91 µM, a GI50 (OVCAR-5 ovarian) of 7.12 µM and a TGI (OVCAR-5 ovarian) of 20.2 µM. It also gave a GI50 (HCT-15 colon) of 3.89 µM, a TGI (HCT-15 colon) of 13.6 µM and a GI50 (DU-145 prostate) of 3.22 µM. It also gave a TGI (DU-145 prostate) of 11.9 µM, a GI50 (OVCAR-8 ovarian) of 4.46 µM and a TGI (OVCAR-8 ovarian) of 16.8 µM. The GI50 (LOX IMVI melanoma) was 1.66 µM, the TGI (LOX IMVI melanoma) was 3.91 µM and the GI50 (PC-3 prostate) was 3.05 µM. For the same compound, the TGI (PC-3 prostate) was 12 µM, the GI50 (U251 CNS) was 2.68 µM and the TGI (U251 CNS) was 8.57 µM. For the same compound, the GI50 (HL-60(TB) leukemia) was 5.66 µM, the TGI (HL-60(TB) leukemia) was 20.3 µM and the GI50 (KM12 colon) was 5.43 µM. The TGI (KM12 colon) was 18 µM, the GI50 (M14 melanoma) was 10.1 µM and the TGI (M14 melanoma) was 21.7 µM. For the same compound, the GI50 (SN12C renal) was 3.38 µM, the TGI (SN12C renal) was 13.1 µM and the GI50 (SK-MEL-2 melanoma) was 40 µM. For the same compound, the TGI (SK-MEL-2 melanoma) was > 100 µM, the GI50 (SF-295 CNS) was 4.87 µM and the TGI (SF-295 CNS) was 19.1 µM. The GI50 (NCI-H23 lung) was 11.2 µM, the TGI (NCI-H23 lung) was 23.4 µM and the GI50 (COLO 205 colon) was 3.89 µM. It also gave a TGI (COLO 205 colon) of 13.6 µM, a GI50 (MOLT-4 leukemia) of 4.93 µM and a TGI (MOLT-4 leukemia) of 45.6 µM. It also gave a GI50 (NCI/ADR-RES ovarian) of 5.27 µM, a TGI (NCI/ADR-RES ovarian) of 18.1 µM and a GI50 (ACHN renal) of 2.93 µM. For the same compound, the TGI (ACHN renal) was 11.3 µM, the GI50 (RXF 393 renal) was 19.3 µM and the TGI (RXF 393 renal) was 49.5 µM. The GI50 (MCF7 breast) was 5.37 µM, the TGI (MCF7 breast) was 40.6 µM and the GI50 (BT-549 breast) was 3.87 µM. It also gave a TGI (BT-549 breast) of 15.7 µM, a GI50 (A498 renal) of 12.7 µM and a TGI (A498 renal) of 26.2 µM. It also gave a GI50 (NCI-H226 lung) of 5.2 µM, a TGI (NCI-H226 lung) of 17.4 µM and a GI50 (UO-31 renal) of 1.92 µM. For the same compound, the TGI (UO-31 renal) was 3.69 µM, the GI50 (CAKI-1 renal) was 3.82 µM and the TGI (CAKI-1 renal) was 13.2 µM. It also gave a GI50 (SNB-75 CNS) of 3.18 µM, a TGI (SNB-75 CNS) of 18.8 µM and a GI50 (A549 NSCLC) of 8.46 µM. The TGI (A549 NSCLC) was 20.6 µM, the GI50 (HOP-62 NSCLC) was 8.64 µM and the TGI (HOP-62 NSCLC) was 20.8 µM. For the same compound, the GI50 (786-0 renal) was 6.98 µM, the TGI (786-0 renal) was 19.9 µM and the GI50 (NCI-H522 lung) was > 100 µM. The TGI (NCI-H522 lung) was > 100 µM, the GI50 (UACC-62 melanoma) was 12.5 µM and the TGI (UACC-62 melanoma) was 25.4 µM. It also gave a GI50 (K-562 leukemia) of 4.69 µM, a TGI (K-562 leukemia) of 18.5 µM and a GI50 (SK-OV-3 ovarian) of 15.5 µM. The TGI (SK-OV-3 ovarian) was > 100 µM, the GI50 (IGROV1 ovarian) was 3.93 µM and the TGI (IGROV1 ovarian) was 16.5 µM. It also gave a GI50 (OVCAR-3 ovarian) of 3.88 µM, a TGI (OVCAR-3 ovarian) of 15.8 µM and a GI50 (SK-MEL-28 melanoma) of 18 µM. For the same compound, the TGI (SK-MEL-28 melanoma) was 52.7 µM, the GI50 (HCT-116 colon) was 3.72 µM and the TGI (HCT-116 colon) was 16.4 µM. The GI50 (MDA-MB-231 breast) was 3.58 µM, the TGI (MDA-MB-231 breast) was 13.8 µM and the GI50 (UACC-257 melanoma) was 4.06 µM. For the same compound, the TGI (UACC-257 melanoma) was 16.6 µM, the GI50 (SNB-19 CNS) was 10.4 µM and the TGI (SNB-19 CNS) was > 100 µM.

With `Nc1nc(Nc2ccccc2)sc1C(=O)c1ccc(Cl)cc1` the TGI (TK-10 renal) was > 100 µM, the TGI (SR leukemia) was > 100 µM and the TGI (SF-539 CNS) was > 100 µM. The TGI (EKVX NSCLC) was > 100 µM, the TGI (OVCAR-4 ovarian) was 3.01 µM and the TGI (SF-268 CNS) was > 100 µM. The TGI (SW-620 colon) was > 49 µM, the TGI (HT29 colon) was > 100 µM and the TGI (HOP-92 NSCLC) was > 100 µM. The TGI (CCRF-CEM leukemia) was > 100 µM, the TGI (OVCAR-5 ovarian) was > 100 µM and the TGI (HCT-15 colon) was > 100 µM. For the same compound, the TGI (HL-60(TB) leukemia) was > 100 µM, the TGI (KM12 colon) was > 100 µM and the TGI (M14 melanoma) was > 100 µM. For the same compound, the TGI (SK-MEL-2 melanoma) was > 100 µM, the TGI (SF-295 CNS) was > 100 µM and the TGI (NCI-H23 lung) was > 100 µM. For the same compound, the TGI (COLO 205 colon) was > 100 µM, the TGI (MOLT-4 leukemia) was > 100 µM and the TGI (RXF 393 renal) was 5.17 µM. The TGI (MCF7 breast) was > 100 µM, the TGI (BT-549 breast) was > 100 µM and the TGI (CAKI-1 renal) was 27.4 µM. The TGI (T-47D breast) was > 100 µM, the TGI (K-562 leukemia) was > 100 µM and the TGI (IGROV1 ovarian) was > 100 µM. The TGI (SK-MEL-28 melanoma) was > 100 µM, the TGI (MDA-MB-231 breast) was > 100 µM and the TGI (SNB-19 CNS) was > 100 µM.

For `N=C(N)c1ccc(-c2ccc(-c3ccc(Cl)cc3)o2)o1`, the GI50 (TK-10 renal) was 2.07 µM, the TGI (TK-10 renal) was 3.57 µM and the GI50 (RPMI-8226 leukemia) was 2.12 µM. For the same compound, the TGI (RPMI-8226 leukemia) was 4.78 µM, the GI50 (MDA-MB-435) was 1.36 µM and the TGI (MDA-MB-435) was 2.69 µM. It also gave a GI50 (SK-MEL-5 melanoma) of 1.81 µM, a TGI (SK-MEL-5 melanoma) of 3.21 µM and a GI50 (DU-145 prostate) of 1.75 µM. For the same compound, the TGI (DU-145 prostate) was 3.27 µM, the GI50 (PC-3 prostate) was 1.81 µM and the TGI (PC-3 prostate) was 3.38 µM. It also gave a GI50 (SF-295 CNS) of 1.83 µM, a TGI (SF-295 CNS) of 3.32 µM and a GI50 (ACHN renal) of 1.89 µM. The TGI (ACHN renal) was 3.51 µM, the GI50 (BT-549 breast) was 5.92 µM and the TGI (BT-549 breast) was 29.6 µM. For the same compound, the GI50 (A498 renal) was 2.12 µM, the TGI (A498 renal) was 7.59 µM and the GI50 (NCI-H226 lung) was 2.19 µM. It also gave a TGI (NCI-H226 lung) of 6.46 µM, a GI50 (SNB-75 CNS) of 1.5 µM and a TGI (SNB-75 CNS) of 2.86 µM. The GI50 (SK-OV-3 ovarian) was 1.79 µM, the TGI (SK-OV-3 ovarian) was 3.35 µM and the GI50 (OVCAR-3 ovarian) was 1.83 µM. It also gave a TGI (OVCAR-3 ovarian) of 3.43 µM.
